Results as given in ChEMBL document CHEMBL3039007, “Structure-based identification of OATP1B1/3 inhibitors” (Mol Pharmacol, 2013).

Experiments:
[1] = target: T1, Solute carrier organic anion transporter family member 1B1 (Homo sapiens, UniProt Q9Y6L6); settings: chinese hamster, cho, 10 µM
T1 sequence (Q9Y6L6 whole entry): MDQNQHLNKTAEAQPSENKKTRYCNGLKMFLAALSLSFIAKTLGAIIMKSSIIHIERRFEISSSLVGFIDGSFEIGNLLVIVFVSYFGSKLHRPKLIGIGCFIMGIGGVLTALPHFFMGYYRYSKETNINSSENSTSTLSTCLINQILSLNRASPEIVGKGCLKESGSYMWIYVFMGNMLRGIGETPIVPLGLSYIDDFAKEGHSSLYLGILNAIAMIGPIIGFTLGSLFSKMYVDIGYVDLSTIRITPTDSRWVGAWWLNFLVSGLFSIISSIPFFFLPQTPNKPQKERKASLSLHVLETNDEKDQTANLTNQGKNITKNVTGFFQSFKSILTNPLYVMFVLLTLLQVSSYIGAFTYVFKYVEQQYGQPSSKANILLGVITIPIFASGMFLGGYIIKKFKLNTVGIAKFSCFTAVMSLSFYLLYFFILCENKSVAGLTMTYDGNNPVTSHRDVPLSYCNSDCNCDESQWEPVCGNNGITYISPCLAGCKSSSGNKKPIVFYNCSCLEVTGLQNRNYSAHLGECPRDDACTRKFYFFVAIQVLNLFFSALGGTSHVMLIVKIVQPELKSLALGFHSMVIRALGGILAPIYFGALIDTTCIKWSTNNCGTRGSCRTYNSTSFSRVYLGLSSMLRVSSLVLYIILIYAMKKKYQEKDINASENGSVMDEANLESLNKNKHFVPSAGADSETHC

[2] = target: T2, Solute carrier organic anion transporter family member 1B3 (Homo sapiens, UniProt Q9NPD5); settings: chinese hamster, cho, 10 µM
T2 sequence (Q9NPD5 whole entry): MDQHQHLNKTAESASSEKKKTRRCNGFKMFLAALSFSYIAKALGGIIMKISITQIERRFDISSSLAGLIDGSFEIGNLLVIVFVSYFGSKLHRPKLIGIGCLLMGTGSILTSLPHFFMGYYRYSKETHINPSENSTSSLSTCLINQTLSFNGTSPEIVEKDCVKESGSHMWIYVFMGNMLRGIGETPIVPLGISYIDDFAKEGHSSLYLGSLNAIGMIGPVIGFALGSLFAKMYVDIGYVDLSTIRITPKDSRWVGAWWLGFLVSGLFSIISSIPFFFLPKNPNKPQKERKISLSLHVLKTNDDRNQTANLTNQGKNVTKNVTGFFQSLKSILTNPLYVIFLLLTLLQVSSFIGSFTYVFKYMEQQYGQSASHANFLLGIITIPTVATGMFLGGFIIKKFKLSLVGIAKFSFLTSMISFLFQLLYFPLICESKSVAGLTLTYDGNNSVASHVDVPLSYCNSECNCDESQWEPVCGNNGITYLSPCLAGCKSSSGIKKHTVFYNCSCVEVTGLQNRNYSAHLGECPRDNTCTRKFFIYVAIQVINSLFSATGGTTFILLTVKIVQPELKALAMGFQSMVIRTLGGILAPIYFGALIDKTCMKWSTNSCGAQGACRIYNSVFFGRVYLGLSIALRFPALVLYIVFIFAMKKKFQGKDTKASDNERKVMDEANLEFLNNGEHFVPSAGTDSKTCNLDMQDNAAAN

SMILES | residual activity [1] | residual activity [2]
COc1ccc([C@@H](C)C(=O)c2ccc(O)cc2O)cc1 [ANGOLENSIN (R)] | 114.1% | 126.8%
CC(C)CCC[C@@H](C)[C@H]1CC[C@H]2[C@@H]3C[C@@H](O)[C@@]4(O)C[C@@H](O)CC[C@]4(C)[C@H]3CC[C@]12C [CHOLESTAN-3beta,5alpha,6beta-TRIOL] | 90.42% | 93.54%
NC(=O)c1ccccc1O [SALICYLAMIDE] | 85.6% | 94.84%
CN1CCN(C2=Nc3ccccc3Oc3ccc(Cl)cc32)CC1.O=C(O)CCC(=O)O [LOXAPINE SUCCINATE] | 140.7% | 117.8%
CN(C)CCC=C1c2ccccc2CCc2ccccc21.Cl [AMITRIPTYLINE HYDROCHLORIDE] | 53.22% | 80.45%
CCC1(CC)C(=O)C=CNC1=O [PYRITHYLDIONE] | 106.5% | 101.3%
COP(=S)(OC)Oc1ccc(Sc2ccc(OP(=S)(OC)OC)cc2)cc1 [TEMEFOS] | 144.3% | 89.27%
CC(=O)Oc1c(-c2ccccc2)oc2c(CC=C(C)C)c3c(c(OC(C)=O)c2c1=O)C=CC(C)(C)O3 [SERICETIN DIACETATE] | 106.8% | 81.94%
NC(=O)c1cccc(N)c1 [3-AMINOBENZAMIDE] | 106.1% | 110.7%
CC(=O)Oc1cc(OC(C)=O)c2c(c1)O[C@H](c1ccc(OC(C)=O)c(OC(C)=O)c1)[C@@H](OC(C)=O)C2 [CATECHIN PENTAACETATE] | 82.47% | 104.9%
CCN(CC)CCNC(=O)c1cc(S(C)(=O)=O)ccc1OC.Cl [TIAPRIDE HYDROCHLORIDE] | 106.2% | 94.93%
O=C(O)c1cc([N+](=O)[O-])ccc1NCCCc1ccccc1 [5-NITRO-2-PHENYLPROPYLAMINOBENZOIC ACID [NPPB]] | 40.14% | 33.43%
CCCCCC/C=C\CCCCCCCc1cccc(O)c1C(=O)O [GINGKOLIC ACID] | 135.9% | 93.22%
C=C1C(N)CC2CC1C2(C)C (stereo not drawn) [3-AMINO-beta-PINENE] | 92.27% | 104.4%
CCCCC(=O)N(Cc1ccc(-c2ccccc2-c2nnn[nH]2)cc1)[C@H](C(=O)O)C(C)C | 67.47% | 56.31%
CO[C@@]1(NC(=O)C(C(=O)[O-])c2ccc(O)cc2)C(=O)N2C(C(=O)[O-])=C(CSc3nnnn3C)CO[C@@H]21.[Na+].[Na+] (stereo partly specified) [MOXALACTAM DISODIUM] | 87.94% | 92.91%
O=C(NC(Cc1cc(=O)[nH]c2ccccc12)C(=O)O)c1ccc(Cl)cc1 (stereo unspecified) [REBAMIPIDE] | 97.98% | 109.2%
O=c1[nH]c(=O)n([C@H]2C[C@H](O)[C@@H](CO)O2)cc1F [FLOXURIDINE] | 116.3% | 109.2%
CCCCOc1cc(C(=O)NCCN(CC)CC)c2ccccc2n1.Cl [DIBUCAINE HYDROCHLORIDE] | 103.4% | 94.35%
Oc1cc(O)cc(/C=C/c2ccccc2)c1 [PINOSYLVIN] | 133.5% | 114.6%
C=CCCCCCCCCCCC/C=C/C(O)COC(C)=O (stereo unspecified) [DEHYDROAVOCATIN-1-ACETATE] | 134.1% | 107.3%
CC1(C)O[C@@H]2[C@@H](CO[C@@]3(COS(N)(=O)=O)OC(C)(C)O[C@@H]23)O1 [TOPIRAMATE] | 93.31% | 106.5%
Nc1ccc(S(=O)(=O)Nc2ccc(Cl)nn2)cc1 [SULFACHLORPYRIDAZINE] | 134.9% | 95.19%
Cc1cc(C)cc(OCC2CNC(=O)O2)c1 (stereo unspecified) [METAXALONE] | 88.21% | 93.18%

SMILES | residual activity [1] | residual activity [2]
CCC(=O)NCC[C@@H]1CCc2ccc3c(c21)CCO3 [RAMELTEON] | 127.6% | 113.4%
COC(=O)C[C@H]1C(C)(C)[C@@H](O)[C@@H]2CC3=C4CC(O)O[C@@H](c5ccoc5)[C@]4(C)CCC3[C@@]1(C)C2=O (stereo partly drawn) [3,16-DIDEOXYMEXICANOLIDE-3beta-DIOL] | 51.44% | 53.76%
C=CC(C)(O)CC/C=C(\C)CCC=C(C)C (stereo unspecified) [NEROLIDOL] | 147.7% | 131.1%
CC(=O)O[C@@H]1CC[C@@]2(C)[C@@H](CC[C@@H]3[C@@H]2CC[C@]2(C)C(=O)CC[C@@H]32)C1 [ANDROSTERONE ACETATE] | 76.88% | 100.8%
C/C1=C\CCC(=O)C2CC(C)(C)C2CC1 (stereo unspecified) [15-NORCARYOPHYLLEN-3-ONE] | 72.07% | 90.82%
CC(=O)OCC1=C(C(=O)[O-])N2C(=O)[C@@H](NC(=O)Cc3cccs3)[C@H]2SC1.[Na+] [CEPHALOTHIN SODIUM] | 45.11% | 66.3%
CO[C@H]1[C@H](O)[C@@H](O)[C@H](O)[C@H](O)[C@H]1O [QUEBRACHITOL] | 101.4% | 106.9%
CCCN1C[C@H](CSC)C[C@@H]2c3cccc4[nH]cc(c34)C[C@H]21.CS(=O)(=O)O [PERGOLIDE MESYLATE] | 90.15% | 85.27%
COc1cc2c(cc1-c1cc3cc4ccoc4cc3oc1=O)OCO2 [PACHYRRIZINE] | 139.6% | 121.4%
Nc1nc(=O)c2[nH]c(=O)cnc2[nH]1 [XANTHOPTERIN] | 104.4% | 104.7%
C=C(C)[C@H]1CC=C(C(=O)O)CC1 [PERILLIC ACID (-)] | 102.2% | 105%
CC(C)=CCc1c(O)cc2oc(C)cc(=O)c2c1O [PEUCENIN] | 137.1% | 169%
COc1c(N2CCNC(C)C2)c(F)cc2c(=O)c(C(=O)O)cn(C3CC3)c12 (stereo unspecified) [GATIFLOXACIN] | 121.9% | 96.61%
CCOC(=O)CCCCCCCCCCCCC1C=CCC1 (stereo unspecified) [CHAULMOOGRIC ACID, ETHYL ESTER] | 108.7% | 92.79%
COc1ccc(-c2coc3cc(O)cc(O)c3c2=O)cc1 [BIOCHANIN] | 98.38% | 113.5%
CN1CCN(CC(=O)N2c3ccccc3C(=O)Nc3cccnc32)CC1.Cl.Cl [PIRENZEPINE HYDROCHLORIDE] | 103.8% | 100.6%
CCCCCCCCNC(C)C(O)c1ccc(SC(C)C)cc1 (stereo unspecified) [SULOCTIDIL] | 143.8% | 108.7%
COc1cc(OC)c(OC)cc1C=O | 48.71% | 59.17%
C#C[C@]1(O)CC[C@H]2[C@@H]3CCC4=C(CCC(=O)C4)[C@H]3CC[C@@]21C [NORETHYNODREL] | 64.52% | 124.5%
CC(=O)NO [ACETOHYDROXAMIC ACID] | 91.26% | 100.9%
COS(C)(=O)=O [METHANESULFONIC ACID METHYL ESTER] | 57.02% | 79.48%
N[C@H](CO)Cc1ccccc1 [L-PHENYLALANINOL] | 77.2% | 101.5%
COc1ccc(-c2cc(=O)c3ccccc3o2)cc1OC [3',4'-DIMETHOXYFLAVONE] | 187.6% | 129.7%
CC[C@@]1(O)C[C@H](O[C@H]2C[C@H](N(C)C)[C@H](O[C@H]3C[C@H](O)[C@H](O[C@H]4CCC(=O)[C@H](C)O4)[C@H](C)O3)[C@H](C)O2)c2c(cc3c(c2O)C(=O)c2c(O)cccc2C3=O)[C@H]1C(=O)OC [ACLARUBICIN] | 95.52% | 107.1%
